Patent US7943655B2, “Polymorphic and pseudopolymorphic forms of trandolaprilat, pharmaceutical compositions and methods for production and use” (Universitat Zurich, priority 2006, dated 2011)
Several values for one entry are separate records, joined by “and”; a condition that tells them apart may be missing. Equal entries are not always repeated.

Experiments:
[1] = Storage stability of crystalline forms (decomposition to Trandolaprilat diketopiperazine, by HPLC); type: physicochemical; conditions: for Amount of Trandolaprilat Diketopiperazine after Isolation and Drying of the Wet Product: before storage; for Tendency to decompose to Trandolaprilat Diketopiperazine on storage (in words): comparison of crystalline forms, Table 9
Procedure: Purity was determined by HPLC using a Luna C18 (150×4.6 mm, 3 μm; Manufacturer: Phenomenex, Torrence, Calif., USA) column, as well as a Symmetry C18(2) (150×4.6 mm, 3.5 μm; Manufacturer: Waters Corporation, Millford, Mass., USA) column using as mobile phase: Mobile phase A: 0.03% v/v of trifluoroacetic acid in water; Mobile phase B: 0.025% v/v of trifluoroacetic acid in acetonitrile; column temperature 30° C., flow rate: 1.5 ml/min, detection: UV 206 nm; eluent gradient: […]

[2] = Degradation to Trandolaprilat diketopiperazine in non-hydroxylic solvent (THF solution); type: physicochemical
Description: Furthermore, crystallization and precipitation from non-hydroxylic solvents often provided a resin that could only be difficultly handled.

[3] = Solubility in n-butanol with and without water; type: physicochemical
Description: In step (f), an amount of water is removed from the solution of step (e) that is sufficient for inducing crystallization of the Trandolaprilat and provide crystalline Trandolaprilat in a polymorphic or pseudopolymorphic form. Because Trandolaprilat is not soluble in anhydrous n-butanol, its crystallization from the organic layer can be initiated by removing the water, for example, by concentrating an n-butanol/water solution containing the Trandolaprilat using azeotropic distillation (to provide crystalline Trandolaprilat).

[4] = molecular target: Angiotensin Converting Enzyme (ACE enzyme) (Homo sapiens, UniProt P12821); conditions: compared with Trandolapril; cited from earlier work
Angiotensin Converting Enzyme (ACE enzyme), sequence (P12821 30-1306, species assumed): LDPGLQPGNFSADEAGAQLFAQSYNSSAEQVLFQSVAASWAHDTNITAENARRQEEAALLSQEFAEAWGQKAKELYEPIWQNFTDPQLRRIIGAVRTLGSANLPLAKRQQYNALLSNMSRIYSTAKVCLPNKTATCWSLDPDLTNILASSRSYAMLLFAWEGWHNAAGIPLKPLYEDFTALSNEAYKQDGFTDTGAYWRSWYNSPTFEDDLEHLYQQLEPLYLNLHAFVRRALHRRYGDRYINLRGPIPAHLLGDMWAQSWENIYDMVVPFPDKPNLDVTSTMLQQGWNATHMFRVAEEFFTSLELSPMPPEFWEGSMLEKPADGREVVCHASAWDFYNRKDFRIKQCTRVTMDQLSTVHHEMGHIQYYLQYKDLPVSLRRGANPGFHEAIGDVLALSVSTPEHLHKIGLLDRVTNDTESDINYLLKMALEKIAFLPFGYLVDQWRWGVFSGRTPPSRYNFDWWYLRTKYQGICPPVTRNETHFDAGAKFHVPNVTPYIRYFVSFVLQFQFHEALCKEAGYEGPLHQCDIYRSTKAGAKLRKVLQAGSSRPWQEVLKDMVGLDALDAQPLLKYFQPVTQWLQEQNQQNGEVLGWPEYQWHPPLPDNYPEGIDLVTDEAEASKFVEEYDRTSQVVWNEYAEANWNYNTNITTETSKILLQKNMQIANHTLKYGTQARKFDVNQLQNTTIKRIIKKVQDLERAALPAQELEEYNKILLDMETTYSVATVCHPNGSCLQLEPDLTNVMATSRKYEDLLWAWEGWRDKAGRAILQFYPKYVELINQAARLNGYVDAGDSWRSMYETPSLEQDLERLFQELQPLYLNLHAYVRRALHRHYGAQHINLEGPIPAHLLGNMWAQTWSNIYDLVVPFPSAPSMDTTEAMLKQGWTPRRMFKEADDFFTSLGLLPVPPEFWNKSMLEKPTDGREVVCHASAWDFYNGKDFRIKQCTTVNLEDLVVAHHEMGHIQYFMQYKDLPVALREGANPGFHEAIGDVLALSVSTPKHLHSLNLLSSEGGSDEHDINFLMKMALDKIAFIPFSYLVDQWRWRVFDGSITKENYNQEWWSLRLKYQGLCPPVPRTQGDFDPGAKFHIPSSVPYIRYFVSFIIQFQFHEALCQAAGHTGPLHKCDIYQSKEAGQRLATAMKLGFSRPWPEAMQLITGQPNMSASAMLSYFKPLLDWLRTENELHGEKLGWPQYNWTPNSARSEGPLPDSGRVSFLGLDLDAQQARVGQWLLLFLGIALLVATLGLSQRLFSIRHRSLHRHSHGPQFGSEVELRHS

[5] = storage temperature 20-25, storage time 4 months

Compound	Amount of Trandolaprilat Diketopiperazine after Isolation and Drying of the Wet Product [1]	Tendency to decompose to Trandolaprilat Diketopiperazine on storage (in words) [1]	Amount of Trandolaprilat Diketopiperazine after Storage [1, 5] [% by HPLC]	Amount of Trandolaprilat Diketopiperazine after Storage ([1]; storage temperature 4-8, storage time 3 months) [% by HPLC]	Amount of Trandolaprilat Diketopiperazine after Storage ([1]; storage temperature 20-25, storage time 3 months) [% by HPLC]	Formation of degradation product Trandolaprilat diketopiperazine ([2]; THF solution heated at reflux temperature)	Rate of degradation to Trandolaprilat diketopiperazine ([2]; dissolved in THF, room temperature)	Solubility ([3]; anhydrous n-butanol)	Solubility ([3]; free amino acid form, n-butanol saturated with water)	Potency as an inhibitor of ACE activity relative to Trandolapril [4]
C[C@H](N[C@@H](CCc1ccccc1)C(=O)O)C(=O)N1[C@H](C(=O)O)C[C@H]2CCCC[C@@H]21 [Form A, Trandolaprilat]	Not Detected	only a very low quantity of the degradation product	0.02							
C[C@H](N[C@@H](CCc1ccccc1)C(=O)O)C(=O)N1[C@H](C(=O)O)C[C@H]2CCCC[C@@H]21 [Form B, Trandolaprilat]	Not Detected	significantly lower	0.20							
C[C@H](N[C@@H](CCc1ccccc1)C(=O)O)C(=O)N1[C@H](C(=O)O)C[C@H]2CCCC[C@@H]21 [Form C, Trandolaprilat]	Not Detected	significantly lower	0.26							
C[C@H](N[C@@H](CCc1ccccc1)C(=O)O)C(=O)N1[C@H](C(=O)O)C[C@H]2CCCC[C@@H]21 [Form D, Trandolaprilat]	Not Detected	only a very low quantity of the degradation product	0.03							
C[C@H](N[C@@H](CCc1ccccc1)C(=O)O)C(=O)N1[C@H](C(=O)O)C[C@H]2CCCC[C@@H]21 [Form E, Trandolaprilat]	0.34 %, by HPLC and 0.19 %, by HPLC	greater tendency to decompose		0.75	0.92					
C[C@H](N[C@@H](CCc1ccccc1)C(=O)O)C(=O)N1[C@H](C(=O)O)C[C@H]2CCCC[C@@H]21 [Trandolaprilat]						almost complete within a few hours	at least 0.2 % per hour	not soluble	soluble	about eight times more potent than Trandolapril
